Experimental findings from patent publication US20200069648A1, “HALOALLYLAMINE PYRAZOLE DERIVATIVE INHIBITORS OF LYSYL OXIDASES AND USES THEREOF” (Pharmaxis Ltd., priority 2017, published 2020) are described below.

The target of one assay is T1, Bovine LOX (Bos taurus, UniProt P33072).
T1 sequence (P33072 170-418): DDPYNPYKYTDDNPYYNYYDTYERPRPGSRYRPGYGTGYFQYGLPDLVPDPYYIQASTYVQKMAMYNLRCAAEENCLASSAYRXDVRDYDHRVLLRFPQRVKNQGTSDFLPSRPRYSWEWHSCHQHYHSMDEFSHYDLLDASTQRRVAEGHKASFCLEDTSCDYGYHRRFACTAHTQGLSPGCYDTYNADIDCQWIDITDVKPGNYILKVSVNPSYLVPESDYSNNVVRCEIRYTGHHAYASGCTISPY
Put plainly: LOX amine oxidase inhibition, peroxidase-coupled Amplex Red assay. The assay is classed as biochemical. The following applies: 30 min preincubation at 37° C., putrescine substrate. An excerpt: (§1) Method to Determine the Ability of Compounds of the Invention to Inhibit LOX and LOXL1-4 from Different Sources
Lysyl oxidase (LOX) is an extracellular copper dependent enzyme which oxidizes peptidyl lysine and hydroxylysine residues in collagen and lysine residues in elastin to produce peptidyl alpha-aminoadipic-delta-semialdehydes. […] There are five LOX family members; these are LOX, LOXL1, LOXL2, LOXL3 and LOXL4. LOX and LOXL family members can be acquired as recombinant active proteins from commercial sources, or extracted from animal tissues like bovine aorta, tendons, pig skin; or prepared from cell cultures. The inhibitory effects of the compounds of the present invention were tested against the given LOX-LOXL preparation using a high-throughput coupled colorimetric method (Holt A. and Palcic M., A peroxidase-coupled continuous absorbance plate-reader assay for flavin monoamine oxidases, copper-containing amine oxidases and related enzymes. Nat. Protoc. 2006; 1: 2498-2505). The assay was developed using either 384 or 96 well format. Briefly, in a standard 384 well plate assay 25 μL of a dilution of any of the isoenzymes and orthologues in 1.2 M urea, 50 mM sodium borate buffer (pH 8.2) were added into each well in the presence of 1 μM mofegiline and 0.5 mM pargyline (to inhibit SSAO and MAO-B and MAO-A, respectively). […] Twenty five μL of a reaction mixture containing twice the KM concentration of putrescine (Sigma Aldrich, e.g. 20 mM for LOX, or 10 mM for LOXL2 and LOXL3), 120 μM Amplex Red (Sigma Aldrich) and 1.5 U/mL horseradish peroxidase (Sigma Aldrich) prepared in 1.2 M urea, 50 mM sodium borate buffer (pH 8.2) were then added to the corresponding wells. The above volumes were doubled in the case of 96 wells plate. The fluorescence (RFU) was read every 2.5 min for 30 min at a range of temperatures from 37° to 45° C., excitation 565 nm and emission 590 (Optima; BMG labtech). The slope of the kinetics for each well was calculated using MARS data analysis software (BMG labtech) and this value was used to deduce the IC50 value (Dotmatics).

Another assay has as its target T2, Human LOXL2 (Homo sapiens, UniProt Q9Y4K0).
T2 sequence (Q9Y4K0 26-774): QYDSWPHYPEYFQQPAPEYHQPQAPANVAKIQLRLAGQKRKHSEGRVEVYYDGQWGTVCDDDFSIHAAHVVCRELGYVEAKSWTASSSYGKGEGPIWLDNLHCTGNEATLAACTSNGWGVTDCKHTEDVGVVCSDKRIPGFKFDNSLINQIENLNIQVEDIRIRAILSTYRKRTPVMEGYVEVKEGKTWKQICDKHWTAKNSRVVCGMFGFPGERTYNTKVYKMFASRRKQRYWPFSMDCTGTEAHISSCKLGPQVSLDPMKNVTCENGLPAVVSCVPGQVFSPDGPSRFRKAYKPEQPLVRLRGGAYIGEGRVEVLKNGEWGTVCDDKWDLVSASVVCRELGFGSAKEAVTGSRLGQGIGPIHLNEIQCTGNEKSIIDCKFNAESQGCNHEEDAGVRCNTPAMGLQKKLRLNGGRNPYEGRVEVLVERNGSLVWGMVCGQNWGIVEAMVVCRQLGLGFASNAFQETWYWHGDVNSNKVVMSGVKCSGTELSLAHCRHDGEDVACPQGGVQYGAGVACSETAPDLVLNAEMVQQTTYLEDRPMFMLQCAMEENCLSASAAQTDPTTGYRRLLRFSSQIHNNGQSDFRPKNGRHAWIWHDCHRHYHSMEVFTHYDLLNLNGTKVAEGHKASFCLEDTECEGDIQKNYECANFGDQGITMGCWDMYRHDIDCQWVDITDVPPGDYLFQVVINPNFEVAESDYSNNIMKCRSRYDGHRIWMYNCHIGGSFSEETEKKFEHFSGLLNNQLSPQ
The experiment in a line: LOXL2 amine oxidase inhibition, peroxidase-coupled Amplex Red assay. The assay is classed as biochemical. The following applies: 30 min preincubation at 37° C., putrescine substrate.
Excerpt: as §1
Lysyl oxidase (LOX) is an extracellular copper dependent enzyme which oxidizes peptidyl lysine and hydroxylysine residues in collagen and lysine residues in elastin to produce peptidyl alpha-aminoadipic-delta-semialdehydes. […] There are five LOX family members; these are LOX, LOXL1, LOXL2, LOXL3 and LOXL4. LOX and LOXL family members can be acquired as recombinant active proteins from commercial sources, or extracted from animal tissues like bovine aorta, tendons, pig skin; or prepared from cell cultures. The inhibitory effects of the compounds of the present invention were tested against the given LOX-LOXL preparation using a high-throughput coupled colorimetric method (Holt A. and Palcic M., A peroxidase-coupled continuous absorbance plate-reader assay for flavin monoamine oxidases, copper-containing amine oxidases and related enzymes. Nat. Protoc. 2006; 1: 2498-2505). The assay was developed using either 384 or 96 well format. Briefly, in a standard 384 well plate assay 25 μL of a dilution of any of the isoenzymes and orthologues in 1.2 M urea, 50 mM sodium borate buffer (pH 8.2) were added into each well in the presence of 1 μM mofegiline and 0.5 mM pargyline (to inhibit SSAO and MAO-B and MAO-A, respectively). Test compounds were dissolved in DMSO and tested in a Concentration Response Curve (CRC) with 11 data points, typically in the micromolar or nanomolar range after incubation with the enzyme for 30 min at 37° C. Twenty five μL of a reaction mixture containing twice the KM concentration of putrescine (Sigma Aldrich, e.g. 20 mM for LOX, or 10 mM for LOXL2 and LOXL3), 120 μM Amplex Red (Sigma Aldrich) and 1.5 U/mL horseradish peroxidase (Sigma Aldrich) prepared in 1.2 M urea, 50 mM sodium borate buffer (pH 8.2) were then added to the corresponding wells. The above volumes were doubled in the case of 96 wells plate. The fluorescence (RFU) was read every 2.5 min for 30 min at a range of temperatures from 37° to 45° C., excitation 565 nm and emission 590 (Optima; BMG labtech). The slope of the kinetics for each well was calculated using MARS data analysis software (BMG labtech) and this value was used to deduce the IC50 value (Dotmatics).

SMILES strings stand for the structures. pIC50: −log10 of the molar value. Structures can show the parent of a compound that is named as a salt.

As a reminder, the pIC50 is the IC50 on a negative log10 scale, so that one unit is a factor of ten. Lower therefore signals a large IC50. Turning to `Cc1nn(C/C(F)=C/CN)c(C)c1-c1cccc(S(=O)(=O)N(C)C)c1` [Compound 33, (Z)-3-(1-(4-amino-2-fluorobut-2-en-1-yl)-3,5-dimethyl-1H-pyrazol-4-yl)-N,N-dimethylbenzenesulfonamide], the pIC50 against Bovine LOX was more than 5.00; on Human LOXL2, more than 6.00.

`Cc1c(-c2cccc(S(=O)(=O)N(C)C)c2)c(Cl)nn1C/C(F)=C/CN` [Compound 34, (Z)-3-(1-(4-amino-2-fluorobut-2-en-1-yl)-3-chloro-5-methyl-1H-pyrazol-4-yl)-N,N-dimethylbenzenesulfonamide hydrochloride]: the figures for the pIC50 at Bovine LOX and against Human LOXL2 were more than 5.00 and more than 6.00, respectively.

Take `Cc1nn(C/C(F)=C/CN)c(Cl)c1-c1cccc(S(=O)(=O)N(C)C)c1` [Compound 35, (Z)-3-(1-(4-amino-2-fluorobut-2-en-1-yl)-5-chloro-3-methyl-1H-pyrazol-4-yl)-N,N-dimethylbenzenesulfonamide hydrochloride]: the pIC50 is more than 5.00 against Bovine LOX and more than 6.00 against Human LOXL2.

For `Cc1c(Cc2ccc(S(=O)(=O)N(C)C)c(Cl)c2)c(C(C)O)nn1C/C(F)=C/CN` (centres unmarked) [Compound 37, (Z)-4-((1-(4-amino-2-fluorobut-2-en-1-yl)-3-(1-hydroxyethyl)-5-methyl-1H-pyrazol-4-yl)methyl)-2-chloro-N,N-dimethylbenzenesulfonamide], the pIC50 against Bovine LOX was more than 5.00; at Human LOXL2, more than 6.00.

`COCc1c(Cc2ccc(S(=O)(=O)N(C)C)c(Cl)c2)c(C)nn1C/C(F)=C/CN` [Compound 38, (Z)-4-((1-(4-amino-2-fluorobut-2-en-1-yl)-5-(methoxymethyl)-3-methyl-1H-pyrazol-4-yl)methyl)-2-chloro-N,N-dimethylbenzenesulfonamide]: the pIC50 against Bovine LOX was more than 5.00; against Human LOXL2, more than 6.00.

Take `COCc1nn(C/C(F)=C/CN)c(C)c1Cc1ccc(S(=O)(=O)N(C)C)c(Cl)c1` [Compound 39, (Z)-4-((1-(4-amino-2-fluorobut-2-en-1-yl)-3-(methoxymethyl)-5-methyl-1H-pyrazol-4-yl)methyl)-2-chloro-N,N-dimethylbenzenesulfonamide]: the negative-log IC50 (pIC50) is more than 5.00 against Bovine LOX and more than 6.00 against Human LOXL2.

Consider `Cc1nn(C/C(F)=C/CN)c(C)c1Oc1ccc(S(=O)(=O)N(C)C)c(Cl)c1` [Compound 40, (Z)-4-((1-(4-amino-2-fluorobut-2-en-1-yl)-3,5-dimethyl-1H-pyrazol-4-yl)oxy)-2-chloro-N,N-dimethylbenzenesulfonamide], for which the pIC50 against Bovine LOX was more than 5.00; against Human LOXL2, more than 6.00.

Take `Cc1nn(C/C(F)=C/CN)c(Cl)c1Cc1ccc(S(=O)(=O)N(C)C)c(Cl)c1` [Compound 41, (Z)-4-((1-(4-amino-2-fluorobut-2-en-1-yl)-5-chloro-3-methyl-1H-pyrazol-4-yl)methyl)-2-chloro-N,N-dimethylbenzenesulfonamide]: the pIC50 against Bovine LOX is more than 5.00; at Human LOXL2, more than 6.00.

Turning to `Cc1c(Cc2ccc(S(=O)(=O)N(C)C)c(Cl)c2)c(Cl)nn1C/C(F)=C/CN` [Compound 42, (Z)-4-((1-(4-amino-2-fluorobut-2-en-1-yl)-3-chloro-5-methyl-1H-pyrazol-4-yl)methyl)-2-chloro-N,N-dimethylbenzenesulfonamide], the negative logarithm of the IC50 (pIC50) on Bovine LOX is more than 5.00; against Human LOXL2, more than 6.00.

For the compound `Cc1nn(C/C(F)=C/CN)c(C(C)C)c1Cc1ccc(S(C)(=O)=O)nc1` [Compound 43, (Z)-3-fluoro-4-(5-isopropyl-3-methyl-4-((6-(methylsulfonyl)pyridin-3-yl)methyl)-1H-pyrazol-1-yl)but-2-en-1-amine dihydrochloride], the results for the pIC50 against Bovine LOX and against Human LOXL2 were more than 5.00 and more than 6.00, respectively.

`Cc1nn(C/C(F)=C/CN)c(C)c1Cc1ccc(S(=O)(=O)C(F)(F)F)cc1` [Compound 44, (Z)-4-(3,5-dimethyl-4-(4-((trifluoromethyl)sulfonyl)benzyl)-1H-pyrazol-1-yl)-3-fluorobut-2-en-1-amine hydrochloride]: the results for the pIC50 on Bovine LOX and at Human LOXL2 were more than 5.00 and more than 6.00, respectively.

`CNS(=O)(=O)c1ccc(Cc2c(C)nn(C/C(F)=C/CN)c2C)cc1OC(F)(F)F` [Compound 45, (Z)-4-((1-(4-amino-2-fluorobut-2-en-1-yl)-3,5-dimethyl-1H-pyrazol-4-yl)methyl)-N-methyl-2-(trifluoromethoxy)benzenesulfonamide hydrochloride]: the pIC50 was more than 5.00 against Bovine LOX and more than 6.00 at Human LOXL2.

As for `Cc1nn(Cc2ccc(S(=O)(=O)N(C)C)c(Cl)c2)c(C)c1C/C(F)=C/CN` [Compound 46, (Z)-4-((4-(4-amino-2-fluorobut-2-en-1-yl)-3,5-dimethyl-1H-pyrazol-1-yl)methyl)-2-chloro-N,N-dimethylbenzenesulfonamide hydrochloride], the pIC50 at Bovine LOX is more than 5.00; against Human LOXL2 it was more than 6.00.

For the compound `Cc1nn(Cc2ccc(S(=O)(=O)N(C)C)cc2Cl)c(C)c1C/C(F)=C/CN` [Compound 47, (Z)-4-((4-(4-amino-2-fluorobut-2-en-1-yl)-3,5-dimethyl-1H-pyrazol-1-yl)methyl)-3-chloro-N,N-dimethylbenzenesulfonamide hydrochloride], the pIC50 is more than 5.00 at Bovine LOX and more than 6.00 at Human LOXL2.

`Cc1nn(C/C(F)=C/CN)c(C)c1Cc1ccc(NS(C)(=O)=O)cc1` [Compound 48, (Z)—N-(4-((1-(4-amino-2-fluorobut-2-en-1-yl)-3,5-dimethyl-1H-pyrazol-4-yl)methyl)phenyl)methane-sulfonamide hydrochloride]: the pIC50 against Bovine LOX is more than 5.00; against Human LOXL2, more than 6.00.

Take `Cc1nn(C/C(F)=C/CN)c(C)c1Cc1ccc(S(=O)(=O)C(C)C)c(Cl)c1` [Compound 49, (Z)-4-(4-(3-chloro-4-(isopropylsulfonyl)benzyl)-3,5-dimethyl-1H-pyrazol-1-yl)-3-fluorobut-2-en-1-amine hydrochloride]: the figures for the pIC50 against Bovine LOX and on Human LOXL2 were more than 5.00 and more than 6.00, respectively.
